Data set [1] deals with HIV-1IIIB. The data set can be described thus: Syncytia assay (anti-HIV-1 activity). Format: cell-based. Conditions: Human immunodeficiency virus 1, 72 h; concentration reducing syncytia formation by 50%; C8166 cells infected with HIV-1IIIB, M.O.I 0.06, 3 days; means of two separate experiments; read-out: EC50 (50% effective concentration). As to the method: (§1) Cell line (C8166) and the laboratory-derived virus (HIV-1IIIB) were obtained from MRC, AIDS Reagent Project, London, UK. C8166 was maintainedin RPMI-1640 supplemented with 10% heat-inactivated newborn calf serum (Gibco, Grand Island, NY, USA). The cells used in all experiments were in log-phase growth. The 50% HIV-1IIIB tissue culture infectious dose (TCID50) in C8166 cells was determined and calculated by the Reed and Muench method. Virus stocks were stored in small aliquots at −70 °C.
In the presence of 100 μL various concentrations of 2-alkyl-2-(N-arylsulfonylindol-3-yl)-3-N-acyl-5-aryl-1,3,4-oxadiazolines, C8166 cells (4 × 10^5/mL) were infected with virus HIV-1IIIB at a multiplicity of infection (M.O.I) of 0.06. The final volume per well was 200 μL. Control assays were performed without the testing compounds in HIV-1IIIB infected and uninfected cultures. After 3 days of culture, the cytopathic effect (CPE) was measured by counting the number of syncytia. Percentage inhibition of syncytia formation was calculated and 50% effective concentration (EC50) was calculated. AZT (Sigma-Aldrich, St. Louis, MO, USA) was used as a positive control. Therapeutic index (TI) = CC50/EC50.

Data set [2] is described as follows: MTT-based cytotoxicity assay. Conditions: human, C8166 cells, concentration causing 50% reduction in total C8166 cell number, means of two separate experiments, read-out: CC50 (50% cytotoxic concentration). Here is the method:
as §1
Cellular toxicity of 2-alkyl-2-(N-arylsulfonylindol-3-yl)-3-N-acyl-5-aryl-1,3,4-oxadiazolines 3s–r′ on C8166 cells was assessed by MTT method as described previously. Briefly, cells were seeded on 96-well microtiter plate in the absence or presence of various concentrations of 2-alkyl-2-(N-arylsulfonylindol-3-yl)-3-N-acyl-5-aryl-1,3,4-oxadiazolines in triplicate and incubated at 37 °C in a humid atmosphere of 5% CO2 for 3 day. The supernatants were discarded and MTT reagent (5 mg/mL in PBS) was added to each wells, then incubated for 4 h, 100 μL of 50% N,N-dimethylformamide (DMF)-20% SDS was added. After the formazan was dissolved completely, the plates were read on a Bio-TekElx800 ELISA reader (BioTek, Winooski, VT, USA) at 595/630 nm. The cytotoxic concentration that caused the reduction of viable C8166 cells by 50% (CC50) was determined from dose–response curve.
(Tetrazolium dyes change colour on reduction, which living cells bring about.)

≈ marks a conversion by molar mass, not a printed value.

What is called melting point is the temperature, or range, at which the solid turns liquid. `CCC1(c2cn(S(=O)(=O)c3ccccc3)c3ccccc23)OC(c2ccccc2)=NN1C(C)=O` (stereo not drawn) [3d′, 2-Ethyl-2-(N-benzenesulfonylindol-3-yl)-3-N-acetyl-5-phenyl-1,3,4-oxadiazolines] showed a melting point of 224 to 226 °C. Also, the EC50 in data set [1] amounted to 20.3 µg/mL (≈ 42.9 µM). Besides, in data set [2], the CC50 at 3 day came out at 105 µg/mL (≈ 222 µM).

`CC(=O)N1N=C(c2ccccc2)OC1(C)c1cn(S(=O)(=O)c2ccc(Cl)cc2)c2ccc([N+](=O)[O-])cc12` (stereo not drawn) [3c′, 2-Methyl-2-(N-p-chlorobenzenesulfonyl-5-nitroindol-3-yl)-3-N-acetyl-5-phenyl-1,3,4-oxadiazolines] gave a melting point of 108 to 110 °C. Moreover, the EC50 in data set [1] turned out to be 6.01 µg/mL (≈ 11.2 µM). Besides, the CC50 at 3 day in data set [2] was found to be 53.4 µg/mL (≈ 99.1 µM).

Take `CC(=O)N1N=C(c2ccccc2)OC1c1cn(S(=O)(=O)c2ccc(Cl)c([N+](=O)[O-])c2)c2cc(C)ccc12` (stereo not drawn) [3j′]: the EC50 in data set [1] turned out to be 12.4 µg/mL (≈ 23 µM). The CC50 at 3 day in data set [2] is 2.26 µg/mL (≈ 4.19 µM).

As to `CC(=O)N1N=C(c2ccccc2)OC1c1cn(S(=O)(=O)c2cccc([N+](=O)[O-])c2)c2ccc(C#N)cc12` (stereo not drawn) [3p′], the EC50 in data set [1] amounted to 63.8 µg/mL (≈ 124 µM). Moreover, the CC50 at 3 day in data set [2] was 135 µg/mL (≈ 262 µM).

Take `COc1ccc(S(=O)(=O)n2cc(C3OC(c4ccccc4)=NN3C(C)=O)c3ccc(C)cc32)cc1` (stereo not drawn) [3n′]: in data set [1], the EC50 was found to be 16.6 µg/mL (≈ 33.8 µM). Also, the CC50 at 3 day in data set [2] worked out at 11.2 µg/mL (≈ 22.9 µM).

In the case of `CC(=O)N1N=C(c2ccccc2)OC1c1cn(S(=O)(=O)c2ccc(Cl)cc2)c2ccccc12` (stereo not drawn) [3k′], the EC50 in data set [1] was found to be 19.4 µg/mL (≈ 40.4 µM). Further, the CC50 at 3 day in data set [2] was determined as 16.6 µg/mL (≈ 34.5 µM).

For the molecule `CC(=O)N1N=C(c2ccccc2)OC1c1cn(S(=O)(=O)c2ccc(C)cc2)c2cc(C)ccc12` (stereo not drawn) [3g′], the EC50 in data set [1] came to 22.5 µg/mL (≈ 47.5 µM). Also, the CC50 at 3 day in data set [2] was determined as 80.8 µg/mL (≈ 171 µM).

With `CC(=O)N1N=C(c2ccccc2)OC1(C)c1cn(S(=O)(=O)c2ccccc2)c2ccc(C#N)cc12` (stereo not drawn) [3z, 2-Methyl-2-(N-benzenesulfonyl-5-cyanoindol-3-yl)-3-N-acetyl-5-phenyl-1,3,4-oxadiazolines], the melting point lay within 208 to 210 °C. Further, in data set [1], the EC50 worked out at 17.6 µg/mL (≈ 36.3 µM). Also, in data set [2], the CC50 at 3 day came out at 53 µg/mL (≈ 109 µM).

The molecule `CC(=O)N1N=C(c2ccccc2)OC1(C)c1cn(S(=O)(=O)c2ccc(C)cc2)c2ccc([N+](=O)[O-])cc12` (stereo not drawn) [3b′, 2-Methyl-2-(N-p-methylbenzenesulfonyl-5-nitroindol-3-yl)-3-N-acetyl-5-phenyl-1,3,4-oxadiazolines] returned a melting point of 110 to 112 °C. Further, in data set [1], the EC50 worked out at 9.54 µg/mL (≈ 18.4 µM). Besides, in data set [2], the CC50 at 3 day was 133 µg/mL (≈ 256 µM).

Turning to `CC(=O)N1N=C(c2ccccc2)OC1c1cn(S(=O)(=O)c2ccc(C)cc2)c2ccccc12` (stereo not drawn) [3e′], in data set [1], the EC50 was found to be 15.5 µg/mL (≈ 33.8 µM). In addition, in data set [2], the CC50 at 3 day was found to be 15.1 µg/mL (≈ 32.8 µM).

Turning to `CC(=O)N1N=C(c2ccccc2)OC1c1cn(S(=O)(=O)c2cccc([N+](=O)[O-])c2)c2cc(C)ccc12` (stereo not drawn) [3i′], the EC50 in data set [1] stood at 0.51 µg/mL (≈ 1.01 µM). Further, the CC50 at 3 day in data set [2] came to 20.2 µg/mL (≈ 40 µM).

On to `CC(=O)N1N=C(c2ccccc2)OC1c1cn(S(=O)(=O)c2ccc(Cl)cc2)c2cc(C)ccc12` (stereo not drawn) [3l′], for which the EC50 in data set [1] was 57.5 µg/mL (≈ 116 µM). The CC50 at 3 day in data set [2] is 182 µg/mL (≈ 368 µM).

As for `CC(=O)N1N=C(c2ccccc2)OC1c1cn(S(=O)(=O)c2cccc([N+](=O)[O-])c2)c2ccccc12` (stereo not drawn) [3f′], the EC50 in data set [1] stood at 1.79 µg/mL (≈ 3.65 µM). In addition, in data set [2], the CC50 at 3 day amounted to 43.5 µg/mL (≈ 88.6 µM).

Turning to `Cc1cn([C@H]2C[C@H](N=[N+]=[N-])[C@@H](CO)O2)c(=O)[nH]c1=O` [AZT, 3′-azido-3′-deoxythymidine, reference compound], the EC50 in data set [1] is 0.00199 µg/mL (≈ 0.00745 µM). The CC50 at 3 day in data set [2] came out at 1370 µg/mL (≈ 5140 µM).

Regarding `CC(=O)N1N=C(c2ccccc2)OC1(C)c1cn(S(=O)(=O)c2ccc(Cl)cc2)c2ccc(C#N)cc12` (stereo not drawn) [3a′, 2-Methyl-2-(N-p-chlorobenzenesulfonyl-5-cyanoindol-3-yl)-3-N-acetyl-5-phenyl-1,3,4-oxadiazolines], the melting point fell in the range of 128 to 130 °C. Further, the EC50 in data set [1] stood at 3.63 µg/mL (≈ 6.99 µM). Besides, the CC50 at 3 day in data set [2] came to 113 µg/mL (≈ 218 µM).

`CC(=O)N1N=C(c2ccccc2)OC1c1cn(S(=O)(=O)c2ccc(Cl)c([N+](=O)[O-])c2)c2ccccc12` (stereo not drawn) [3h′]: the EC50 in data set [1] came to 3.53 µg/mL (≈ 6.72 µM). Moreover, in data set [2], the CC50 at 3 day was determined as 4.8 µg/mL (≈ 9.14 µM).

On to `CCC(=O)N1N=C(c2ccccc2)OC1c1cn(S(=O)(=O)c2ccc(C)cc2)c2ccccc12` (stereo not drawn) [3q′], for which, in data set [1], the EC50 came to 3 µg/mL (≈ 6.34 µM). Moreover, the CC50 at 3 day in data set [2] is 78 µg/mL (≈ 165 µM).

On to `CCC(=O)N1N=C(c2ccccc2)OC1c1cn(S(=O)(=O)c2ccc(C)cc2)c2ccc(C#N)cc12` (stereo not drawn) [3r′], for which, in data set [1], the EC50 was 4.01 µg/mL (≈ 8.04 µM). Also, the CC50 at 3 day in data set [2] was 98.3 µg/mL (≈ 197 µM).

The molecule `CC(=O)N1N=C(c2ccccc2)OC1(C)c1cn(S(=O)(=O)c2ccccc2)c2cc(C)ccc12` (stereo not drawn) [3y, 2-Methyl-2-(N-benzenesulfonyl-6-methylindol-3-yl)-3-N-acetyl-5-phenyl-1,3,4-oxadiazolines] yielded a melting point of 142 to 144 °C. For the same molecule, the EC50 in data set [1] stood at 6.12 µg/mL (≈ 12.9 µM). In addition, the CC50 at 3 day in data set [2] is over 200 µg/mL.

With `COc1ccc(S(=O)(=O)n2cc(C3OC(c4ccccc4)=NN3C(C)=O)c3ccccc32)cc1` (stereo not drawn) [3m′], in data set [1], the EC50 is 22.5 µg/mL (≈ 47.3 µM). Moreover, the CC50 at 3 day in data set [2] turned out to be 12.3 µg/mL (≈ 25.9 µM).

As for `CC(=O)N1N=C(c2ccccc2)OC1c1cn(S(=O)(=O)c2ccc(C)cc2)c2ccc(C#N)cc12` (stereo not drawn) [3o′], in data set [1], the EC50 amounted to 18.1 µg/mL (≈ 37.4 µM). In data set [2], the CC50 at 3 day is 152 µg/mL (≈ 313 µM).

The record behind these values is PMC6278315, “Microwave-Assisted Expeditious Synthesis of 2-Alkyl-2-(N-arylsulfonylindol-3-yl)-3-N-acyl-5-aryl-1,3,4-oxadiazolines Catalyzed by HgCl2 under Solvent-Free Conditions as Potential Anti-HIV-1 Agents” (Molecules, 2018).
